Measured values as given in patent US8993542B2, “Methods of treating viral infections” (priority 2008, dated 2015).

System: CEM T-lymphocytic cells or MAGI-CCR5 cells
Experiment: Cytotoxicity of two-drug combinations
Conditions: 10 μM highest test concentration
Experimental: The anti-HIV-1 activity of CMX157 is evaluated in two-drug combination studies with twenty-four different FDA-approved anti-HIV inhibitors. Each two-drug combination is tested three times in CEM T-lymphocytic cells or MAGI-CCR5 cells acutely infected with the laboratory-adapted strain HIV-1IIIB or HIV-1Ba-L, respectively. Viral growth/inhibition is evaluated by measuring virus-induced cytopathic effects (CPE) in CEM cells or by β-galactosidase reporter gene induction in MAGI-CCR5 cells at the experimental endpoint. The cytotoxicity of each two-drug combination is also evaluated in parallel with the antiviral evaluations. The concentrations of CMX157 used in these evaluations are selected in order to test a broad range of concentrations and to provide as complete a dose response curve as possible under the limitations of eight total concentrations. […] The “positive antagonism control” of d4T (stavudine) in combination with RBV was tested in parallel with each of the assays that were performed. Analysis of drug interactions for each of the two-drug combinations is performed using the Prichard and Shipman MacSynergy II three-dimensional model for statistical evaluation of combination assays.

CCCCCCCCCCCCCCCCOCCCOP(=O)(O)CO[C@H](C)Cn1cnc2c(N)ncnc21 [CMX157, Hexadecyloxypropyl-9-R-[2-(Phosphonomethoxy)Propyl]-Adenine]
synergistic cytotoxicity: no evidence of synergistic cytotoxicity
